System: canine oral microbiome
Assay: Controlled clinical study in beagles: oral swab sequencing of the canine oral microbiome
Assay type: in vivo, dog (beagles)
Settings: 14 beagles, arginine powder mixture (1.5% L-arginine) twice daily after meals, 28 days post dental cleaning, oral swabs, global sequencing
Method: In vitro and in vivo studies were required to assert the activity of arginine in oral care of domestic animals. […] Controlled clinical studies were performed in 14 beagles fed an arginine powder mixture (Table 2) twice daily after meals. Dental assessments were performed using photographic inspection after the application of a biofilm disclosing agent. Animals were fed the mixture for 28 days prior to final assessment. Oral swab samples were collected at days 0, 7, 14 and 28 and subjected to global sequencing studies.
In this study bacterial populations were clustered and plotted in separate figures. Data was obtained after 28 days of treatment post dental cleaning.

N=C(N)NCCC[C@H](N)C(=O)O [arginine, L-arginine]
relative abundance of oral bacterial populations, treated vs control animals: shift towards healthy oral bacterial populations

Reference: patent publication US20250302714A1, “ORAL HEALTH AGENT AND COMPOSITION FOR USE IN DOMESTIC ANIMALS” (priority 2022, published 2025)
